US9259416B2, “Pyrazolone compounds useful for treatment of cerebrovascular disorders associated with ischemic stroke” (MITSUBISHI TANABE PHARMA CORPORATION, priority 2004, dated 2016)

Columns and labels:
[1] = test system: monkey middle cerebral artery occlusion; assay: Dose response test with monkey (middle cerebral artery occlusion, infarct); type: in vivo, croo monkey; details: Edaravone administered groups (0.1-0.4 mg/kg loading + 0.5-2.0 mg/kg/hr maintenance i.v.), 28 hours after occlusion
Procedure: A croo monkey (3 years to 5 years old) was subjected to […], and then its body temperature was kept at around 37° C. The middle cerebral artery at around the branch of the left internal carotid artery was exposed, and the middle cerebral artery was occluded by electrocoagulation. Then, the administration was started as in Table 6. 28 hours after occlusion (just after administration), the whole brain was removed under deep anesthesia by excess pentobarbital administration, and coronary brain sections each having a thickness of 4 mm were cut out of the forehead. The brain sections were stained with 1 w/v % 2,3,5-triphenyltetrazolium chloride, and the infarct area was measured to calculate the infarct volume.
In the drug administered groups other than the solvent group, Edaravone was used as the drug and this was administered as in Table 6.

rat serum proteins = details: cited from earlier work
human serum proteins = details: cited from earlier work
[2] = test system: rat middle cerebral artery occlusion and reperfusion model; assay: Cerebral edema in rat middle cerebral artery occlusion and reperfusion model; type: in vivo, Wistar rats
Procedure: After eight weeks to nine weeks old Wistar rats (220 to 260 g) were subjected to inhalation anesthesia with halothane, the inhalation anesthesia with 1% halothane (anesthesia; nitrous oxide: oxygen=7:3) was continued while fixing them in a dorsal position and maintaining their body temperature at around 37° C. In an infusion administration group and a bolus+infusion administration group, a catheter was placed in the femora vein. The right common carotid artery, external carotid artery and internal carotid artery were exposed and the common carotid artery and external carotid artery were ligated in order to occlude the middle cerebral artery. From the common carotid artery, a No. 4 nylon suture (plug) was inserted to occlude the middle cerebral artery. Three hours after occlusion of the middle cerebral artery, the plug was taken out from the common carotid artery and perfusion of the middle cerebral artery was resumed, and then the administration was started as in Table 3. Decapitation and surgical removal of the brain were performed three hours after reperfusion. After separation of the right and left cerebral cortex, the wet weight was measured. After drying at 130° C. for 24 hours, the dry weight was determined. A percentage water content was calculated in accordance with the following equation: (wet weight (g)−dry weight (g))/wet weight (g)×100. The constitution and dose of each group are shown below in Table 3. It is to be noted that to the drug administered groups other than the control group, Edaravone was administered as a drug in accordance with Table 3.

[3] = test system: rat middle cerebral artery occlusion; assay: Dose response test with rat (middle cerebral artery occlusion/reperfusion, infarct); type: in vivo, Crj:CD(SD) male rats
Procedure: Seven weeks to eight weeks old Crj:CD(SD) male rats (190 to 250 g) were subjected to anesthesia with isoflurane, and were fixed in a dorsal position with their body temperature kept at around 37° C. A catheter for drug administration was placed in the cervical vein. The right common carotid artery, external carotid artery and internal carotid artery were exposed and the common carotid artery and external carotid artery were ligated in order to occlude the middle cerebral artery. From the branch of the external carotid artery and the internal carotid artery, a silicone-coated No. 4 nylon suture (plug) was inserted to occlude the middle cerebral artery. Two hours after occlusion of the middle cerebral artery, the plug was taken out and perfusion of the middle cerebral artery was resumed, and then the administration was started as in Table 5. Decapitation and surgical removal of the brain were performed 24 hours after reperfusion. Five brain sections each having a thickness of 2 mm (from the bregma part, from 2 mm before and behind parts of the bregma, and from 4 mm before and behind parts of the bregma) were prepared. The brain sections were stained with 1 w/v % 2,3,5-triphenyltetrazolium chloride, and the infarct area was measured to calculate the infarct volume. […]

Question: With `CC1=NN(c2ccccc2)C(=O)C1` [Edaravone, 1-phenyl-3-methyl-2-pyrazolin-5-one] as the compound, how does the “infarct volume compared with control group” value [1] read?
Answer: small

Question: And the “binding ratio with serum proteins” value (rat serum proteins)?
Answer: 85.8%

Question: And the “binding ratio with serum proteins” value (human serum proteins)?
Answer: 91.9%

Question: What about the “increase in percentage water content of cortex” value ([2]; bolus group, 3 mg/kg i.v. immediately after reperfusion, brain removed 3 h after reperfusion) of the same compound?
Answer: almost equal

Question: And the “increase in percentage water content of cortex” value ([2]; bolus+infusion group, 0.2 mg/kg i.v. + 1 mg/kg/hr i.v. for 2.75 hours)?
Answer: lowest

Question: What about the “increase in percentage water content of cortex” value ([2]; infusion group, 1 mg/kg/hr i.v. for 3 hours after reperfusion) of the same compound?
Answer: almost equal

Question: And the infarct area ([3]; 0.1 mg/kg+0.5 mg/kg/hr i.v., P<0.05 vs physiological saline)?
Answer: significantly decreased

Question: What about the “infarct volume compared with control group” value ([3]; Edaravone administered groups (0.05-0.2 mg/kg loading + 0.25-1.0 mg/kg/hr maintenance i.v.), 24 hours after reperfusion) of the same compound?
Answer: small
